In patent US9650339B2, “Inhibitors of histone demethylases” (Gilead Sciences, Inc., priority 2013, dated 2017):

Legend:
Assay type in all cases: biochemical
[1] = biological target: T1, KDM5C (JARID1C) (Homo sapiens, UniProt P41229); assay: Histone lysine demethylase AlphaLISA assay, KDM5C; details: read-out: KDM5C HDME Inhibition IC50
T1 construct: 2-1560; purchased BPS; host or cells: Bac (baculovirus system)
Procedure, shortened: (§1)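 AlphaLISA demethylation readout: enzyme preincubated 10 min, then 10 min with compounds in 3% DMSO buffer, before biotinylated methyl-lysine histone peptide substrate with 25 μM L-Asc and 10 μM α-KG, room temperature. Acceptor beads then streptavidin donor beads added, dark incubation, plates read.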

[2] = biological target: T2, KDM2B (FBXL10) (Homo sapiens, UniProt Q8NHM5); assay: Histone lysine demethylase AlphaLISA assay, KDM2B; details: read-out: KDM2B HDME Inhibition IC50
T2 sequence (Q8NHM5 1-650): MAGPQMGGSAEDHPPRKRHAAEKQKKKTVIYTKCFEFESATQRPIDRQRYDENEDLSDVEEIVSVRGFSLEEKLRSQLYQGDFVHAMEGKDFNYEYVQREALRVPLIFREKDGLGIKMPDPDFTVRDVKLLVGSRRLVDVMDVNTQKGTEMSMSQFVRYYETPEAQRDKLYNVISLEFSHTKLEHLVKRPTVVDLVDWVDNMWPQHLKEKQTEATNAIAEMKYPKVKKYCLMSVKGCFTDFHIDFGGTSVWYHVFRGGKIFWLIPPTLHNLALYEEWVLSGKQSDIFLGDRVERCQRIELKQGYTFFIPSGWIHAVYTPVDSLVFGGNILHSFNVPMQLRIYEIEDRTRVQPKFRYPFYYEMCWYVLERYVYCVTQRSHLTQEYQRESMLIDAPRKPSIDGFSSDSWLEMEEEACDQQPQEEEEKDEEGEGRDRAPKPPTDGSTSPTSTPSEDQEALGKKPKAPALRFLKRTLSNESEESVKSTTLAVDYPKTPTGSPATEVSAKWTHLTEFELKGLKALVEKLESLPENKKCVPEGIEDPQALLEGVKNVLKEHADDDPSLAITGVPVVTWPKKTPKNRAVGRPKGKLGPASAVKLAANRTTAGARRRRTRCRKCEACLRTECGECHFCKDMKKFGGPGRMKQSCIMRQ
Procedure, shortened: as §1

[3] = biological target: T3, KDM6B (JMJD3) (Homo sapiens, UniProt O15054); assay: Histone lysine demethylase AlphaLISA assay, KDM6B; details: read-out: KDM6B HDME Inhibition IC50
T3 construct: 1043-end; purchased BPS; host or cells: Bac (baculovirus system)
Procedure, shortened: as §1

[4] = biological target: KDM6A (UTX) (Homo sapiens, UniProt O15550); assay: Histone lysine demethylase AlphaLISA assay, KDM6A; details: read-out: KDM6A HDME Inhibition IC50
Procedure, shortened: as §1

[5] = biological target: T4, KDM5B (PLU-1) (Homo sapiens, UniProt Q9UGL1); assay: Histone lysine demethylase AlphaLISA assay, KDM5B; details: read-out: KDM5B HDME Inhibition IC50
T4 sequence (Q9UGL1 1-809): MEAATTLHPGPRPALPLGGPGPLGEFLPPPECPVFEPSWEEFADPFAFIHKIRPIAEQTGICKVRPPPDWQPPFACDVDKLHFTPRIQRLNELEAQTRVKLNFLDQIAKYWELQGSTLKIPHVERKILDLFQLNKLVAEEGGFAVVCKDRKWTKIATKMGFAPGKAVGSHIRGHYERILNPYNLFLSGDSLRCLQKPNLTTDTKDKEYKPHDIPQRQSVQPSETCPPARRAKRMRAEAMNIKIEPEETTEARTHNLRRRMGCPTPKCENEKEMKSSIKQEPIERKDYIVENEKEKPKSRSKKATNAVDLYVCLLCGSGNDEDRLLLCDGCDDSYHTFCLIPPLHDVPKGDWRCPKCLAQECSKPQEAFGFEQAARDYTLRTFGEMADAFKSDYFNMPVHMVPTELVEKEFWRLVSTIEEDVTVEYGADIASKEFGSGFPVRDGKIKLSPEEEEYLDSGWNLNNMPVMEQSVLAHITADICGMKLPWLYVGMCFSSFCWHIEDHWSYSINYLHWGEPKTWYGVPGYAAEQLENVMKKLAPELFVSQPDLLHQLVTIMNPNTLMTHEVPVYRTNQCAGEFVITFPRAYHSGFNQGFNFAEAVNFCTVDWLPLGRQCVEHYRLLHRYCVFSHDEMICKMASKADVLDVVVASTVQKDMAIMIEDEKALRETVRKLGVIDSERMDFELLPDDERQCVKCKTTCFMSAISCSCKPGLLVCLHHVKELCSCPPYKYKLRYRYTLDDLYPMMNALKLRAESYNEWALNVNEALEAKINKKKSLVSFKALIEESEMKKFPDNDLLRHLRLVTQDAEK
Procedure, shortened: as §1

[6] = biological target: T5, KDM4A (JMJD2A) (Homo sapiens, UniProt O75164); assay: Histone lysine demethylase AlphaLISA assay, KDM4A; details: read-out: KDM4A HDME Inhibition IC50
T5 construct: 1-350; purchased BPS Bioscience, US; host or cells: E. coli
T5 sequence (O75164 1-350): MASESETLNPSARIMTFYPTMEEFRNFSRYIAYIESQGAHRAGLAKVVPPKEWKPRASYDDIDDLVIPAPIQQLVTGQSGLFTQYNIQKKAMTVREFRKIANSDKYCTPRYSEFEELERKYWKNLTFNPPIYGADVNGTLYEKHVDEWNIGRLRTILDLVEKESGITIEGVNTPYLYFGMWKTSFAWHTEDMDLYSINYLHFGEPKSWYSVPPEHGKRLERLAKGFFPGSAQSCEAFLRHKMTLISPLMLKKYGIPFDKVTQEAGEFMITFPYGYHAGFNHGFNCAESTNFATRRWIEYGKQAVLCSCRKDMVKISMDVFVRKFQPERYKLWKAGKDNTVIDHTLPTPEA
Procedure, shortened: as §1

T1 sequence (P41229 2-1560): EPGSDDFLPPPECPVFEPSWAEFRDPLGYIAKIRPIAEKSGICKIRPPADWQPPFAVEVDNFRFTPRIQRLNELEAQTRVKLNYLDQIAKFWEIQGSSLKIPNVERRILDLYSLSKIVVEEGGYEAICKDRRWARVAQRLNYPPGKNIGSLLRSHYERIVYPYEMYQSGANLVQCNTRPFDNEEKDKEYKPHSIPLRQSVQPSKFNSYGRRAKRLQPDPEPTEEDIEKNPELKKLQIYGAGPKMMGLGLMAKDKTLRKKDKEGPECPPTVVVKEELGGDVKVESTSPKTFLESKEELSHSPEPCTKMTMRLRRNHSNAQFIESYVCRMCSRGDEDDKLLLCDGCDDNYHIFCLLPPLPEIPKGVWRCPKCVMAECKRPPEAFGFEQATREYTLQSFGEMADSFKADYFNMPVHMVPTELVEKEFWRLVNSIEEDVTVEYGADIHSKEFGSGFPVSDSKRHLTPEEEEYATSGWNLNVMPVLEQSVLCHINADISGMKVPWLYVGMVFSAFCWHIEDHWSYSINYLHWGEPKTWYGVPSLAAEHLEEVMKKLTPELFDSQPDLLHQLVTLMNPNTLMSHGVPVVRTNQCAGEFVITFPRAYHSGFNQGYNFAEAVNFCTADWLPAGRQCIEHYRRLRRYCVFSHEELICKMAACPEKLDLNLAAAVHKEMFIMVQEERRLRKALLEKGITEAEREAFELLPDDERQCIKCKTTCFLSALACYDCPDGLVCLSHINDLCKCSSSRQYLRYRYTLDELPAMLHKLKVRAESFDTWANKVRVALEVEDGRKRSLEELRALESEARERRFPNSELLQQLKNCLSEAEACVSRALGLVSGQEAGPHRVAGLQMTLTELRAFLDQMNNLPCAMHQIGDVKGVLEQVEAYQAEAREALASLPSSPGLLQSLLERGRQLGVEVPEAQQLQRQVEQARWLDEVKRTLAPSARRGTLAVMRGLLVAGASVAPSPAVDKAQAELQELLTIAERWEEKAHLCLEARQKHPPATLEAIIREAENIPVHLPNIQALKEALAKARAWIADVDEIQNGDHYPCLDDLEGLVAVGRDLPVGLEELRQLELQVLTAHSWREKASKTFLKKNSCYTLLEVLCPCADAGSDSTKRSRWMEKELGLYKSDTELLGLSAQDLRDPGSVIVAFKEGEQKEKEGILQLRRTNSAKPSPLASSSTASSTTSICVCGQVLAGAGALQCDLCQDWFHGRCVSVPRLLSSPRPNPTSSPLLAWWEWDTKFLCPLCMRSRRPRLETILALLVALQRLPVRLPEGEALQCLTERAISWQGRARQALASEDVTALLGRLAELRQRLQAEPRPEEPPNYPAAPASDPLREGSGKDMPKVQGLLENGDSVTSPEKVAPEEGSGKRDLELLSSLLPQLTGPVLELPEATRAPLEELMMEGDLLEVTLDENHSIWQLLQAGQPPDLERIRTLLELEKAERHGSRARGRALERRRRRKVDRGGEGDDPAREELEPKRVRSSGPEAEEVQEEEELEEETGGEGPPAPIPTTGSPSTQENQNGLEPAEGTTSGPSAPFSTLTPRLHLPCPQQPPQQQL
Chain of KDM6A (UTX) (O15550 919-1401): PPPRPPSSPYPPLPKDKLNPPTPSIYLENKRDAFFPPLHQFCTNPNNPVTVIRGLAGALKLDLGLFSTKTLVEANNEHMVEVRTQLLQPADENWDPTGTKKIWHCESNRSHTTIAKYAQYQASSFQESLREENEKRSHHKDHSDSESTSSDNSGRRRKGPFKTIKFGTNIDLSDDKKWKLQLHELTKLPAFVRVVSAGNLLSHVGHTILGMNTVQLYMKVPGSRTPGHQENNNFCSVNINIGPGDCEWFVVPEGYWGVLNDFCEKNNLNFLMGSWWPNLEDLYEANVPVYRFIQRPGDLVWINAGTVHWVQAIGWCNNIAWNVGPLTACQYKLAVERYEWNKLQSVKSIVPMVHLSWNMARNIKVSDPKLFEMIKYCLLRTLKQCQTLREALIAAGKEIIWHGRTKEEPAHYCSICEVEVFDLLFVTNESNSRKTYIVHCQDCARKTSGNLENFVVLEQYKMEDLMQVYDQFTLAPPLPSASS
T3 sequence (O15054 1043-1682 isoform O15054-1 limits assumed): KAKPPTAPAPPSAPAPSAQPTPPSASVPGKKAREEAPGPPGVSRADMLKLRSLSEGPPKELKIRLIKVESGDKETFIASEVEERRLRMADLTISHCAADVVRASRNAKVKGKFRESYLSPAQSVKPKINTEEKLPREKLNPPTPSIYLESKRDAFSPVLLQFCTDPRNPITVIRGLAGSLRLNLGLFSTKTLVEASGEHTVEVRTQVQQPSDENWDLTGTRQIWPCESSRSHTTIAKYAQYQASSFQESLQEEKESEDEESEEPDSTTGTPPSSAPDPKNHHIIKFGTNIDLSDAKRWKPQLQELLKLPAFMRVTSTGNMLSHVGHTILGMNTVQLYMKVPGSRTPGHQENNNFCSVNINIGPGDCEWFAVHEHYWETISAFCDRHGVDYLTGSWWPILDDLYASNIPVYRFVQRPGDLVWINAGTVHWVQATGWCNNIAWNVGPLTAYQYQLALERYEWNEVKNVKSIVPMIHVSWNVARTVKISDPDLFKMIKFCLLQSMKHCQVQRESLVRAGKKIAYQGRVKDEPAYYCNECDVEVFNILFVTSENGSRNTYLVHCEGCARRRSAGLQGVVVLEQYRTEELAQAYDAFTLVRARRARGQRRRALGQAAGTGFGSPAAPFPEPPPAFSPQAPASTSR

SMILES	IC50 [1] [nM]	IC50 [2] [nM]	IC50 [3] [nM]	IC50 [4] [nM]	IC50 [5] [nM]	IC50 [6] [nM]
CCN(CC)C(=O)CNCc1cc(/C=N/CCC2CCCCC2)ccn1 [Compound 57, 2-[({4-[[(2-cyclohexylethyl)imino]-methyl]pyridin-2-yl}methyl)amino]-N,N-diethylacetamide]	< 250	250 to 2500	> 2500	> 2500	< 250	250 to 2500
CCCCCCCC/N=C/c1ccnc(CNCC(=O)N(CC)CC)c1 [Compound 58, N,N-diethyl-2-[({4-[(octylimino)methyl]-pyridin-2-yl}methyl)amino]-acetamide]	< 250	250 to 2500	> 2500	> 2500	< 250	> 2500
CCN(CC)CCCCNCc1cc(/C=N/CCOC)ccn1 [Compound 60, [4-(diethylamino)butyl]-({4-[[(2-methoxyethyl)imino]-methyl]pyridin-2-yl}methyl)amine]	< 250	> 2500	> 2500	> 2500	< 250	< 250
CCN(CC)CCCCNCc1cc(/C=N/CCO)ccn1 [Compound 61, 2-[{[2-({[4-(diethylamino)-butyl]amino}-methyl)pyridin-4-yl]methylidene}-amino]ethan-1-ol]	< 250	> 2500	> 2500	> 2500	< 250	> 2500
CCN(CC)CCCCNCc1cc(/C=N/CC(F)(F)C(F)(F)F)ccn1 [Compound 62, {[2-({[4-(diethylamino)-butyl]amino}methyl)pyridin-4-yl]methylidene} (2,2,3,3,3-pentafluoropropyl)-amine]	< 250	> 2500	> 2500	> 2500	< 250	> 2500

Other lines, results leading:

IC50 [1] [nM]	IC50 [2] [nM]	IC50 [3] [nM]	IC50 [4] [nM]	IC50 [5] [nM]	IC50 [6] [nM]	SMILES
< 250	250 to 2500	> 2500	> 2500	< 250	> 2500	CCN(CCN(C)C)C(=O)CNCc1cc(/C=N/CCC2CCCCC2)ccn1 [Compound 63, 2-[({4-[[(2-cydohexylethyl)-imino]methyl]pyridin-2-yl}methyl)amino]-N-[2-(dimethylamino)-ethyl]-N-ethylacetamide]
> 2500	> 2500	> 2500	> 2500	< 250	250 to 2500	CON=Cc1ccnc(CNCCCN(C)C)c1 [Compound 64, [3-(dimethylamino)-propyl]({4-[(methoxyimino)-methyl]pyridin-2-yl}methyl)amine]
< 250	> 2500	> 2500	> 2500	< 250	> 2500	CCN(CC)CCCCNCc1cc(C2NCCN2C)ccn1 (stereo not drawn) [Compound 65, [4-(diethylamino)-butyl]({[4-(1-methylimidazolidin-2-yl)pyridin-2-yl]methyl})amine]
< 250	> 2500	> 2500	> 2500	< 250	< 250	CCN(CCN(C)C)C(=O)CNCc1cc(/C=N/CCO)ccn1 [Compound 66]
< 250	> 2500	> 2500	> 2500	< 250	> 2500	CN(C)C/C=C/CNCc1cc(C=O)ccn1 [Compound 98, 2-({[(2E)-4-(dimethylamino)but-2-en-1-yl]amino}-methyl)pyridine-4-carbaldehyde]
< 250	> 2500	> 2500	> 2500	< 250	> 2500	CN(C)C/C=C\CNCc1cc(C=O)ccn1 [Compound 99, 2-({[(2Z)-4-(dimethylamino)-but-2-en-1-yl]amino}methyl)-pyridine-4-carbaldehyde]
< 250	> 2500	> 2500	> 2500	< 250	< 250	CCN(CCN(C)C)C(=O)CNCc1cc(C=O)ccn1 [Compound 101]
